We go through 22 molecules from patent US8163756B2 (priority 2004, dated 2012).

Where a name gives a salt, the structure may show the parent alone. Read-outs that look alike come from different tables or passages of the source.

What all share (type): biochemical
Test [1] concerns the target T1, Abl kinase (Homo sapiens, UniProt P00519).
T1 sequence (P00519 229-512): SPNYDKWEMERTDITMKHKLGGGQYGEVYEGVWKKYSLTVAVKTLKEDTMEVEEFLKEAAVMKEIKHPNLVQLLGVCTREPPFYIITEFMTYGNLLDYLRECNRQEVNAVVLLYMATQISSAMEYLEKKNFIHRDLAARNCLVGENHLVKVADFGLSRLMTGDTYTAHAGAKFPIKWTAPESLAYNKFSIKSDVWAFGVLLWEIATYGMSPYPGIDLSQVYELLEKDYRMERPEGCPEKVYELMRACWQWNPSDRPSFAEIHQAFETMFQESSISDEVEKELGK
The test is described as follows: Abl kinase assay A2 (as A1, 1.1 nM enzyme, 2 h pre-incubation, 0.5 mM ATP). As for the experimental part: (§1) IC50 values were calculated from a series of percent inhibition values determined at a range of inhibitor concentrations using software routines as implemented in the GraphPad Prism software package.

In test [2] the target is T2, KDR kinase (Homo sapiens, UniProt P35968, DEL940-989/E990V). The test is described as follows: KDR kinase assay K2 (as K1, 2.1 nM enzyme, 2 h pre-incubation, 1.0 mM ATP). As for the experimental part:
as §1

Test [3] deals with B-Raf(V599E) kinase (Homo sapiens, UniProt P15056, V600E). The test is described as follows: B-Raf(V599E) kinase assay B1 (construct 1, MEK1 substrate, coupled spectrophotometric). As for the experimental part: The test compounds were incubated with the reaction mixtureat 30° C. for 2 h. […] The reaction rate was calculated using the […] time frame. […] IC50 values were calculated from a series of percent inhibition values determined at a range of inhibitor concentrations using software routines as implemented in the GraphPad Prism software package.

For test [4], the target named is phosphorylated p-38-alpha kinase (Homo sapiens, UniProt Q16539). The test is described as follows: P-38 alpha kinase assay P1 (coupled spectrophotometric, 2 h pre-incubation).
Test [5] has as its target T2, KDR kinase. The test is described as follows: KDR kinase assay K1 (pyruvate kinase/lactate dehydrogenase coupled, spectrophotometric). The conditions noted are these: Method K1; read-out: KDR Data (IC50). As for the experimental part: as §1
Where [6] appears, read: Method A2, read-out: Abl Data (IC50).
The mark [7] stands for this setting: Method K2, read-out: KDR Data (IC50).
The mark [8] stands for this setting: method P1 (2 h pre-incubation), read-out: P-38 Data.

T2 sequence (P35968 with tags, fused parts or gaps DEL940-989/E990V): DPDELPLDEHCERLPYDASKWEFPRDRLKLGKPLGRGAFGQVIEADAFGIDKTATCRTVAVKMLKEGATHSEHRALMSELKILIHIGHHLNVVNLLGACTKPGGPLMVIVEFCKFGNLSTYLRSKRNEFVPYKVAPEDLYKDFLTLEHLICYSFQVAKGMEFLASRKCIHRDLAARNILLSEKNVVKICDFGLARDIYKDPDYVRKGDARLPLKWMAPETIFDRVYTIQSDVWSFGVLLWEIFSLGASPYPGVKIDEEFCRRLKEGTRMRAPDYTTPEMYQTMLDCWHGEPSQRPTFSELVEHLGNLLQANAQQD
phosphorylated p-38-alpha kinase, sequence (Q16539 1-360 isoform Q16539-2): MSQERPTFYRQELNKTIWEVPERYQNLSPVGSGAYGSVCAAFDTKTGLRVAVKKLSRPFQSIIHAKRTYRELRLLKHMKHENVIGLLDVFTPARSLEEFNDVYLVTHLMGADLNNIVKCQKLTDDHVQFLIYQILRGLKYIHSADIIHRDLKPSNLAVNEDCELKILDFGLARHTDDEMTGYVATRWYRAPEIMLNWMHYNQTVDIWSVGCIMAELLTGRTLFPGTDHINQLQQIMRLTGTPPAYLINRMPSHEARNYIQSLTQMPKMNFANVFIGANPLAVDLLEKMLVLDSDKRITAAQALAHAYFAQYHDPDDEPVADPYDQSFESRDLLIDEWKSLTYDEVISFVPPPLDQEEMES
B-Raf(V599E) kinase, sequence (P15056 with tags, fused parts or gaps V600E): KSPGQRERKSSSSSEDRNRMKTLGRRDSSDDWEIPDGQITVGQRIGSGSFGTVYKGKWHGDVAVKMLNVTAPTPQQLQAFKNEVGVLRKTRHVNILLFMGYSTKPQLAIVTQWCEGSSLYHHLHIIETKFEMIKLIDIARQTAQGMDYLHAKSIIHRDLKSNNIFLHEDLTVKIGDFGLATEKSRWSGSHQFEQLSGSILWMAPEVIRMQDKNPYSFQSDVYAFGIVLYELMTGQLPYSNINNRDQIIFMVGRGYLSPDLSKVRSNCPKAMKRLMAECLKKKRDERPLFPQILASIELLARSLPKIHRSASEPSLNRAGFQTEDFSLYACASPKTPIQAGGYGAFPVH

On to `CC(C)(C)c1cc(NC(=O)Nc2cccc(Oc3cccnc3)c2)n(-c2ccc3[nH]ccc3c2)n1` [Example 116, 1-(3-t-butyl-1-(1H-indol-5-yl)-1H-pyrazol-5-yl)-3-(3-(pyridin-3-yloxy)phenyl)urea], for which the IC50 in test [1] (setting [6]) was found to be 6.6 nM; in test [2] (setting [7]), 5 nM; in test [3], 5.9 nM.
For `CC(C)(C)c1cc(NC(=O)Nc2cccc(Oc3cccnc3)c2)n(-c2cc(CN)c3ccccc3c2)n1` [Example 72, 1-(1-(4-(aminomethyl)naphthalen-2-yl)-3-t-butyl-1H-pyrazol-5-yl)-3-(3-(pyridin-3-yloxy)phenyl)urea], in that order: 2 nM, 8.5 nM and 4.4 nM.
For `Cn1c(=O)c(-c2cccc(NC(=O)Nc3cc(C(C)(C)C)nn3-c3ccc4c(c3)CC(C(N)=O)NC4)c2)cc2cncnc21` (stereo not shown) [Example 185, 1-(3-t-butyl-1-(3-carbamoyl-1,2,3,4-tetrahydroisoquinolin-6-yl)-1H-pyrazol-5-yl)-3-(3-(8-methyl-7-oxo-7,8-dihydropyrido[2,3-d]pyrimidin-6-yl)phenyl)urea dihydrochloride], the IC50 in test [1] was 2.7 nM; in test [3] it was 6.9 nM; in test [4], 23 nM.
Turning to `Cc1ccc(NC(=O)Nc2cc(C(C)(C)C)nn2-c2ccc3c(c2)CCNC3)cc1Nc1nccc(-c2cccnc2)n1` [Example 153, 1-(3-t-butyl-1-(1,2,3,4-tetrahydroisoquinolin-6-yl)-1H-pyrazol-5-yl)-3-(4-methyl-3-(4-(pyridin-3-yl)pyrimidin-2-ylamino)phenyl)urea dihydrochloride], the IC50 in test [1] worked out at 1.2 nM; in test [3], 27 nM.
Regarding `CNC(=O)c1cc(Oc2ccc(NC(=O)Nc3cc(C(C)(C)C)nn3-c3ccc4c(c3)CCNC4)cc2)ccn1` [Example 148, 1-(3-t-butyl-1-(1,2,3,4-tetrahydroisoquinolin-6-yl)-1H-pyrazol-5-yl)-3-(4-(2-(methylcarbamoyl)pyridin-4-yloxy)phenyl)urea], the IC50 in test [1] (setting [6]) worked out at 1.2 nM; in test [3] it was 31 nM.
For the molecule `CC(C)(C)c1cc(NC(=O)Nc2cccc(Oc3cccnc3)c2)n(-c2cc(CO)c3ccccc3c2)n1` [Example 67, 1-(3-t-butyl-1-(4-(hydroxymethyl)naphthalen-2-yl)-1H-pyrazol-5-yl)-3-(3-(pyridin-3-yloxy)phenyl)urea], the IC50 in test [1] (setting [6]) was determined as 1 nM; in test [3] it was 4.8 nM; in test [4] (setting [8]), 35 nM.
For `CC(C)(C)c1cc(NC(=O)Nc2cccc(Oc3cccnc3)c2)n(-c2cc(CC(=O)NCC(O)CO)c3ccccc3c2)n1` (stereo not shown) [Example 97, 1-(3-t-butyl-1-(4-(2-(2,3-dihydroxypropyl-amino)-2-oxoethyl)naphthalen-2-yl)-1H-pyrazol-5-yl)-3-(3-(pyridin-3-yloxy)phenyl)urea], the IC50 in test [1] (setting [6]) came to 1.5 nM; in test [3], 7.2 nM.
Turning to `Cn1c(=O)c(-c2cccc(NC(=O)Nc3cc(C(C)(C)C)nn3-c3ccc4c(c3)CCC(=O)N4)c2)cc2cncnc21` [Example 132, 1-(3-t-butyl-1-(2-oxo-1,2,3,4-tetrahydroquinolin-6-yl)-1H-pyrazol-5-yl)-3-(3-(8-methyl-7-oxo-7,8-dihydropyrido[2,3-d]pyrimidin-6-yl)phenyl)urea], the IC50 amounted to 13 nM in test [1] (setting [6]), 4.8 nM in test [3] and 59 nM in test [4] (setting [8]).
Consider `CNC(=O)c1cc(Oc2ccc(NC(=O)Nc3cc(C(C)(C)C)nn3-c3ccc4nc(N(C)C)ccc4c3)cc2)ccn1` [Example 175, 1-(3-t-butyl-1-(2-(dimethylamino)quinolin-6-yl)-1H-pyrazol-5-yl)-3-(4-(2-(methylcarbamoyl)pyridin-4-yloxy)phenyl)urea], for which the IC50 in test [1] (setting [6]) came to 1.5 nM; in test [3] it was 30 nM; in test [4] (setting [8]), 160 nM.
`CC(C)(C)c1cc(NC(=O)Nc2cc(F)c(F)cc2F)n(-c2ccc3c(c2)CCNC3)n1` [Example 146, 1-(3-t-butyl-1-(1,2,3,4-tetrahydroiso-quinolin-6-yl)-1H-pyrazol-5-yl)-3-(2,4,5-trifluorophenyl)-urea]: the IC50 in test [1] (setting [6]) was 190 nM; in test [3] it was 8.8 nM.
`CC(C)(C)c1cc(NC(=O)Nc2cc(F)cc(F)c2F)n(-c2cc(CO)c3ccccc3c2)n1` [Example 65, 1-(3-t-butyl-1-(4-(hydroxymethyl)naphthalen-2-yl)-1H-pyrazol-5-yl)-3-(2,3,5-trifluorophenyl)urea]: the IC50 came out at 110 nM in test [1] (setting [6]) and 3 nM in test [3].
With `CC(C)(C)c1cc(NC(=O)Nc2cccc(Cl)c2Cl)n(-c2ccc3c(c2)CCNC3)n1` [Example 138, 1-(3-t-butyl-1-(1,2,3,4-tetrahydroisoquinolin-6-yl)-1H-pyrazol-5-yl)-3-(2,3-dichlorophenyl)urea], the IC50 came out at 100 nM in test [1] (setting [6]), 300 nM in test [5], 3.2 nM in test [3] and 140 nM in test [4] (setting [8]).
For `CC(C)(C)c1cc(NC(=O)Nc2cc(F)c(F)cc2F)n(-c2cc(CC(=O)NCC(O)CO)c3ccccc3c2)n1` (stereo not shown) [Example 94, 1-(3-t-butyl-1-(4-(2-(2,3-dihydroxypropyl-amino)-2-oxoethyl)naphthalen-2-yl)-1H-pyrazol-5-yl)-3-(2,4,5-trifluorophenyl)urea], the IC50 in test [1] (setting [6]) was 130 nM; in test [3], 4.8 nM; in test [4] (setting [8]), 68 nM.
For the molecule `CC(C)(C)c1cc(NC(=O)Nc2ccc(-c3cccc4c3CNC4=O)cc2)n(-c2ccc3c(c2)CCNC3)n1` [Example 151, 1-(3-t-butyl-1-(1,2,3,4-tetrahydroisoquinolin-6-yl)-1H-pyrazol-5-yl)-3-(4-(1-oxoisoindolin-4-yl)phenyl)urea hydrochloride], the IC50 came out at 8 nM in test [1] and 3.5 nM in test [2].
As for `CNC(=O)c1cc(Oc2ccc(NC(=O)Nc3cc(C(C)(C)C)nn3-c3ccc4nc(N5CC[C@@H](N(C)C)C5)ccc4c3)cc2)ccn1` [Example 173, 1-(3-t-butyl-1-(2-((R)-3-(dimethylamino)pyrrolidin-1-yl)quinolin-6-yl)-1H-pyrazol-5-yl)-3-(4-(2-(methylcarbamoyl)pyridin-4-yloxy)phenyl)urea], the IC50 in test [1] (setting [6]) was 4.2 nM; in test [3] it was 63 nM.
Consider `CC(C)(C)c1cc(NC(=O)Nc2cccc(Cl)c2Cl)n(-c2ccc3c(c2)CNCC3)n1` [Example 123, 1-[3-t-butyl-1-(1,2,3,4-tetrahydroisoquinolin-7-yl)-1H-pyrazol-5-yl]-3-(2,3-dichloro-phenyl)urea], for which the IC50 in test [1] (setting [6]) came to 290 nM; in test [5] it was 190 nM; in test [3], 4.9 nM.
For the molecule `CNC(=O)c1cc(Oc2ccc(NC(=O)Nc3cc(C(C)(C)C)nn3-c3ccc4[nH]c(=O)ccc4c3)cc2)ccn1` [Example 159, 1-(3-t-butyl-1-(2-oxo-1,2-dihydroquinolin-6-yl)-1H-pyrazol-5-yl)-3-(4-(2-(methylcarbamoyl)pyridin-4-yloxy)phenyl)urea], the IC50 worked out at 2.3 nM in test [1] (setting [6]), 14 nM in test [3] and 72 nM in test [4] (setting [8]).
Consider `CC(C)(C)c1cc(NC(=O)Nc2cccc(Oc3cccnc3)c2)n(-c2ccc3[nH]c(=O)ccc3c2)n1` [Example 156, 1-(3-t-butyl-1-(2-oxo-1,2-dihydroquinolin-6-yl)-1H-pyrazol-5-yl)-3-(3-(pyridin-3-yloxy)phenyl)urea], for which the IC50 came to 5 nM in test [1] (setting [6]), 3.2 nM in test [2] (setting [7]) and 4.1 nM in test [3].
`CC(C)(C)c1cc(NC(=O)Nc2cccc(Cl)c2Cl)n(-c2ccc3nc(N4CCNCC4)ccc3c2)n1` [Example 168, 1-(3-t-butyl-1-(2-(piperazin-1-yl)quinolin-6-yl)-1H-pyrazol-5-yl)-3-(2,3-dichlorophenyl)urea]: the IC50 in test [1] (setting [6]) was 1100 nM; in test [3], 30 nM.
`CC(C)(C)c1cc(NC(=O)Nc2cccc(Oc3cccnc3)c2)n(-c2ccc3c(c2)CCN3)n1` [Example 119, 1-(3-t-butyl-1-(indolin-5-yl)-1H-pyrazol-5-yl)-3-(3-(pyridin-3-yloxy)phenyl)urea]: the IC50 was 12 nM in test [1] (setting [6]), 18 nM in test [5], 9.1 nM in test [3] and 60 nM in test [4] (setting [8]).
As to `CC(C)(C)c1cc(NC(=O)Nc2cc(F)cc(F)c2F)n(-c2cc(CC(=O)NCC(O)CO)c3ccccc3c2)n1` (stereo not shown) [Example 95, 1-(3-t-butyl-1-(4-(2-(2,3-dihydroxypropyl-amino)-2-oxoethyl)naphthalen-2-yl)-1H-pyrazol-5-yl)-3-(2,3,5-trifluorophenyl)urea], the figures for the IC50 in test [1] (setting [6]) and in test [3] were 56 nM and 2.9 nM, respectively.
The corresponding values for `CC(C)(C)c1cc(NC(=O)Nc2cccc(Oc3cncc(Cl)c3)c2)n(-c2ccc3c(c2)CCNC3)n1` [Example 150, 1-(3-t-butyl-1-(1,2,3,4-tetrahydroisoquinolin-6-yl)-1H-pyrazol-5-yl)-3-(3-(5-chloropyridin-3-yloxy)phenyl)urea] are 1.3 nM and 4.7 nM.
